Values joined by “and” are separate entries in the source; they are usually repeats but may differ in a detail not shown here. Equal entries are not always repeated. “Also recorded” adds a separate entry of the source. Where two headings read alike, the source gives them in different places. One block for each molecule: values may come before it.
What was measured:
TCPTP = molecular target: T1, TCPTP (Homo sapiens, UniProt P17706); test: T‐cell protein tyrosine phosphatase (TCPTP) activity assay (p‐NPP); format: biochemical; details: for TCPTP inhibition (in words): up to 100 μM
T1 sequence (P17706 1-415): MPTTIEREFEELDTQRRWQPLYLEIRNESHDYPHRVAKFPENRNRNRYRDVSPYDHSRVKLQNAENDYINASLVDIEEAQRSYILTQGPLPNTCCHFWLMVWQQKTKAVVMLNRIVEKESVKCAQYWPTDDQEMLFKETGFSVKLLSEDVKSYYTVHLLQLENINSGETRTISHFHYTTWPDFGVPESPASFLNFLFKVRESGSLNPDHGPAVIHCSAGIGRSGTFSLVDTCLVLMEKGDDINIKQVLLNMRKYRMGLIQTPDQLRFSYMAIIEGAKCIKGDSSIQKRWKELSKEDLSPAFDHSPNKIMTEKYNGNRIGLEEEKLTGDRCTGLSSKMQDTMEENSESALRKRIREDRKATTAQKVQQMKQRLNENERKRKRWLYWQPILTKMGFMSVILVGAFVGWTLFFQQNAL
Protocol: The effectiveness and safety of protein tyrosine phosphatase (PTP) inhibitors depend on their specificity. PTP1B and TCPTP serve different functions: PTP1B is involved in metabolism and cancer, while TCPTP regulates immune function. Inhibiting TCPTP could impact the immune response, whereas inhibiting PTP1B may benefit metabolic diseases without these side effects.^[ [20] ^, [34] ^, [35] ^] […] These compounds were assessed up to 100 μM (Table 1).
TCPTP enzyme reported by Mendoza et al. was used for this assay. […] Aliquots of 0–10 µL (triplicate) of the newly synthesized compounds, positive control, and solvent were taken. These were incubated with 85 µL of enzyme solution (Tris, 50 mM, pH 6.8, TCPTP) and 5 µL of substrate (p‐NPP, 10 mM) for 15 min at 37 °C.

hPTP1B1–400 [1] = molecular target: T2, hPTP1B1–400 (Homo sapiens, UniProt P18031); test: Kinetic studies of PTP1B (hPTP1B1–400); details: for Inhibition type: hPTP1B1–400; for K m / V max / Ki: ± S.D; for K m / V max: hPTP1B1–400 with inhibitor; for Ki: K i, hPTP1B1–400, p‐NPP 0.1 to 0.5 mM;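 for all read-outs here: enzyme kinetics run across a range of substrate and inhibitor levels, control lacking inhibitor, triplicate runs, parameters derived by fitting Michaelis–Menten style equations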
T2 sequence (P18031 1-400): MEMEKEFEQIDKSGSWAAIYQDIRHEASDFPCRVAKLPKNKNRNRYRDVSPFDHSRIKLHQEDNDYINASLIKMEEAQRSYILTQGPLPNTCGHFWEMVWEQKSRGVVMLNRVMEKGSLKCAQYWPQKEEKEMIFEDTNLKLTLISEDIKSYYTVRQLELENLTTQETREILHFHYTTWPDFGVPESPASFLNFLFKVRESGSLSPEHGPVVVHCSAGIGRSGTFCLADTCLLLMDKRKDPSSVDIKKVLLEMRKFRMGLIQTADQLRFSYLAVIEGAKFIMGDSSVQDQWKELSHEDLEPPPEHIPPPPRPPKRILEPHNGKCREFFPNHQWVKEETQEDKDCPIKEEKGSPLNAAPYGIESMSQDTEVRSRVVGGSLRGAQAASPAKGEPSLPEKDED
Protocol: Kinetic analyses were performed at various substrate and inhibitor concentrations.
The negative control was prepared with the enzyme and substrate in the absence of the inhibitor. Experiments were conducted in triplicate.^[ [30] ^] […] The kinetic parameters of enzyme inhibition, K m and V max, were determined by fitting the data to the Michaelis‐Menten model, Equation (3) (OriginPro 2018 (64‐bit) SR1). (3) y=VmaxX/Km+X´ where V max: is the maximum velocity, X: is the inhibitor concentration, K m: Michaelis constant.
(4) y=Vmax(X)/(Km/1+I/Ki)+X where V max: maximum velocity, X: substrate concentration, I: inhibitor concentration, K m: Michaelis constant, K i : inhibition constant.

hPTP1B1−322 = system: hPTP1B1−322; design: method as in PMID 37628991; details: previous research, cited from earlier work; for IC50: read-out: IC50 against hPTP1B1−322; for Ki: read-out: K i against hPTP1B1−322
hPTP1B1–400 [2] = molecular target: T2, hPTP1B1–400; test: PTP1B activity assay, long form hPTP1B1–400 (p‐NPP); format: biochemical; design: hPTP1B1–400 (the long form with an intrinsically disordered C‐terminal regulatory domain); details: for IC50: ± S.D, p‐NPP substrate, 15 min at 37 °C, triplicate
Protocol: (§1) The inhibitory activity of PTP1B was assessed using two enzyme variants: hPTP1B1–285 (the short form with an N‐terminal catalytic domain) and hPTP1B1–400 (the long form with an intrinsically disordered C‐terminal regulatory domain). […] According to Coronel‐Tovar et al., the disordered region of the C‐terminal domain plays a crucial role in modulating PTP1B enzymatic activity.^[ [30] ^] […] Different concentrations of the compounds were evaluated to determine their IC50 values (Table 1 ).
(§2) Recombinant human protein tyrosine phosphatase 1B, consisting of 400 and 285 amino acid residues, was used.^[ [35] ^] […] Aliquots of 0–10 µL of the test compounds (triplicate) were taken and incubated for 15 min at 37 °C with 85 µL of Tris buffer solution (50 mM, pH 6.8) containing PTP1B enzyme and 5 µL of p‐nitrophenyl phosphate substrate (p‐NPP, 10 mM). Absorbance was then measured at a wavelength of 405 nm. The inhibitory activity was determined according to Equation (1). (1) % PTP1B=(A405b/A405c)×100 where % PTP1B: Is the percentage of inhibition. A 405c: Is the corrected absorbance of the blank (A 405initial–A 405final). A 405b: Is the corrected absorbance of the compounds (A 405control–A 405compound).

HepG2 cells = test: Cell viability with crystal violet; format: cell-based; details: 1 and 25 µM, 24 h
Protocol: (§3) Subsequently, we evaluated the same compounds in a HepG2 insulin‐resistant model.
A 96‐well plate was seeded with 3,000 cells per well and incubated for 24 h. Afterward, the cells were treated with test compounds at various concentrations for 24 h. After incubation, the media was removed, and 100 µL of 1% glutaraldehyde was added for 15 min. Afterward, the liquid was removed, and 50 µL of 0.5% crystal violet (dissolved in 25% methanol) was added for 30 min. The crystal violet staining solution was removed, and the plate was thoroughly washed with tap water. The precipitate was dissolved in a 10% acetic acid solution and mixed for 15 min. The absorbance was then measured at 590 nm using a plate reader (xMark Microplate Spectrophotometer—Bio‐Rad).
Figure S59. Cell viability assessment by crystal violet staining. HepG2 cell viability was evaluated
after treatment with the respective compounds at concentrations of 1 and 25 µM for 24 hours. Bar
graphs represent mean ± SEM.

hPTP1B1–285 = molecular target: T3, hPTP1B1–285 (Homo sapiens, UniProt P18031); test: PTP1B activity assay, short form hPTP1B1–285 (p‐NPP); format: biochemical; details: ± S.D; p‐NPP substrate, 15 min at 37 °C
T3 construct: hPTP1B1–285 (the short form with an N‐terminal catalytic domain)
T3 sequence (P18031 1-285): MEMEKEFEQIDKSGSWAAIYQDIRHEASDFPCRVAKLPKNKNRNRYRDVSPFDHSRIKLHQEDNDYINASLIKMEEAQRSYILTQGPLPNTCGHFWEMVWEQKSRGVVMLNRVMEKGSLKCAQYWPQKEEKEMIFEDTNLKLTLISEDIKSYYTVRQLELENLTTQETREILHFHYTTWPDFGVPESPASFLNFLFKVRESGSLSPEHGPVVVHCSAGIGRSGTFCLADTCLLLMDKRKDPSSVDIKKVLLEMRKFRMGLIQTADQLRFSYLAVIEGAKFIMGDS
Protocol: as §1
To do so, these terpenoids were tested against hPTP1B1–285.
as §2

PTP1B = details: cited from earlier work
[3] = system: insulin‐resistant HepG2 cells; test: Insulin‐resistant HepG2 model, western blotting of PTP1B and pAKT; format: cell-based; details: 24 h, western blot
Protocol: as §3
Bar graphs represent the mean ± SEM of normalized values. The control levels were set at 1. T‐test significance *p < 0.05, when compared with control (DMSO). Statistical analyses were carried out using GraphPad Prism 8.0.
For the resistant insulin model using HepG2 cells, the following reagents were acquired from Sigma–Aldrich (Toluca, MEX, Mexico, and St. Louis, MO, USA): Insulin (I2643), Dulbecco's modified eagle's medium (DMEM) low glucose media (D5523), Trypsin‐EDTA solution (T4174), antibiotic‐antimycotic solution(A5955), dimethyl sulfoxide (DMSO‐D8418), sodium deoxycholate (D6750), triethylammonium bicarbonate buffer 1 M (TEAB‐T7408), glutaraldehyde 25% (G6275), acetic acid (695092), and crystal violet (C0775). The bicinchoninic acid protein quantitation kit (23225) and the Halt Cocktail with protease and phosphatase inhibitors (1861281) were acquired from ThermoFisherScientific. Fetal bovine serum (26140–079) was from Gibco. The chemiluminescent solution (170–5061) was acquired from Biorad. Rabbit anti‐PTP1B (5311S) and mouse anti‐β actin (3700S) primary antibodies were obtained from Cell Signaling, and secondary antibodies coupled with horseradish peroxidase were from Jackson laboratories (rabbit‐111−035, mouse‐115–035).
Treated cells with compounds were washed twice with 1 mL of PBS, and protein was extracted using 500 µL of a buffer solution containing 10% sodium deoxycholate in 10% TEAB, supplemented with a protease and phosphatase inhibitor cocktail. The extracts were heated to 80 °C for 5 min and disaggregated through passages with an insulin syringe. The cell extracts were centrifuged at 15,000 rpm for 15 min at 4 °C, and the supernatant was collected. Protein quantification was performed using the bicinchoninic acid assay method, and aliquots were prepared for western blotting. SDS/PAGE was conducted, and proteins were transferred onto a nitrocellulose membrane. The membrane was then blocked with 10% skimmed milk in TBST for 1 h and incubated overnight with primary antibodies (1:400 dilution). Secondary antibodies coupled to horseradish peroxidase were diluted 1:2000, and membranes were incubated for 1 h. The blots were documented using the ChemiDoc MP (Bio‐Rad), and densitometric analysis was performed using ImageJ (U.S. National Institutes of Health). Statistical analyses were carried out using GraphPad Prism 8.0.

[4] = ± S.D, assessed up to 100 μM, read-out: TCPTP IC50

SMILES: CC1(C)[C@@H](O)CC[C@]2(C)[C@H]3C(=O)C=C4[C@H]5C[C@@](C)(C(=O)O)CC[C@]5(C)CC[C@@]4(C)[C@]3(C)CC[C@@H]12 [18α‐GA, 18α‐glycyrrhetinic acid]
IC50 (TCPTP): > 100 µM
TCPTP inhibition (in words) (TCPTP): do not inhibit TCPTP
Inhibition type (hPTP1B1–400 [1]): uncompetitive inhibition
K m (hPTP1B1–400 [1]): 2110 ± 680 µM
V max (hPTP1B1–400 [1]): 1.94 ± 0.54 mM/min
type of inhibition against hPTP1B1−322 (hPTP1B1−322): competitive inhibition
IC50 (hPTP1B1−322): 10.4 µM
Ki (hPTP1B1−322): 3.17 µM

SMILES: CC1(C)[C@@H](O)CC[C@]2(C)[C@H]3C(=O)C=C4[C@@H]5C[C@@](C)(C(=O)O)CC[C@]5(C)CC[C@@]4(C)[C@]3(C)CC[C@@H]12 [18β‐GA, 18β‐glycyrrhetinic acid]
IC50 (TCPTP): > 100 µM
TCPTP inhibition (in words) (TCPTP): do not inhibit TCPTP
Inhibition type (hPTP1B1–400 [1]): uncompetitive inhibition
K m (hPTP1B1–400 [1]): 2830 ± 960 µM
V max (hPTP1B1–400 [1]): 3.13 ± 0.94 mM/min
type of inhibition against hPTP1B1−322 (hPTP1B1−322): competitive inhibition
IC50 (hPTP1B1−322): 26.1 µM
Ki (hPTP1B1−322): 16.2 µM

SMILES: [Na+].[Na+].[Na+].[O]=[V]([O-])([O-])[O-] [SOV, sodium orthovanadate]
type of PTP1B inhibition (PTP1B): nonselective, competitive, and reversible inhibitor
TCPTP inhibition (in words) (TCPTP): inhibited both PTP1B and TCPTP

SMILES: Cc1ccc(C(=O)Nc2ccc(S(=O)(=O)O)c3cc(S(=O)(=O)O)cc(S(=O)(=O)O)c23)cc1NC(=O)c1cccc(NC(=O)Nc2cccc(C(=O)Nc3cc(C(=O)Nc4ccc(S(=O)(=O)O)c5cc(S(=O)(=O)O)cc(S(=O)(=O)O)c45)ccc3C)c2)c1 [SU, suramin]
type of PTP1B inhibition (PTP1B): competitive and reversible inhibitor

SMILES: C[C@H]1[C@H](C)CC[C@]2(C(=O)O)CC[C@]3(C)C(=CC[C@@H]4[C@@]5(C)CC[C@H](O)C(C)(C)[C@@H]5CC[C@]43C)[C@H]12 [UA, ursolic acid]
IC50 (TCPTP): > 100 µM
AKT phosphorylation (pAKT) levels [3]: did not demonstrate a notable change
PTP1B levels [3]: neither metformin, ursolic acid, nor GA derivatives significantly reduced PTP1B levels

SMILES: CN(C)C(=N)N=C(N)N [metformin]
AKT phosphorylation (pAKT) levels [3]: significant increase
PTP1B levels [3]: neither metformin, ursolic acid, nor GA derivatives significantly reduced PTP1B levels

Continued, in another order:

potency relative to 18α‐GA (hPTP1B1–400 [2]; hPTP1B1–400): half as potent
IC50 (hPTP1B1–400 [2]): 4.44 ± 0.22 µM
IC50 (TCPTP; [4]): > 100 µM
SMILES: CC1(C(=O)O)CCC2(C)CCC3(C)C(=CCC4C5(C)Cc6c([nH]c7ccc(C(F)(F)F)cc67)C(C)(C)C5CCC43C)C2C1 (stereo not drawn) [Compound 3a]

IC50 (hPTP1B1–400 [2]): 2.84 ± 0.26 µM
IC50 (TCPTP; [4]): > 100 µM
Ki (hPTP1B1–400 [1]): 1.16 ± 0.13 µM
Inhibition type (hPTP1B1–400 [1]): uncompetitive inhibition
K m (hPTP1B1–400 [1]): 530 ± 80 µM
V max (hPTP1B1–400 [1]): 0.63 ± 0.06 mM/min
SMILES: CC1(C(=O)O)CCC2(C)CCC3(C)C(=CCC4C5(C)Cc6c([nH]c7ccc(C(F)(F)F)cc67)C(C)(C)C5CCC43C)C2C1 (stereo not drawn) [Compound 3b]

IC50 (hPTP1B1–400 [2]): 2.05 ± 0.09 µM
IC50 (TCPTP; [4]): > 100 µM
SMILES: Cc1ccc(-n2ncc3c2C(C)(C)C2CCC4(C)C(CC=C5C6CC(C)(C(=O)O)CCC6(C)CCC54C)C2(C)C3)cc1 (stereo not drawn) [Compound 5a]

IC50 (hPTP1B1–400 [2]): 2.54 ± 0.05 µM
IC50 (TCPTP; [4]): > 100 µM
SMILES: Cc1ccc(-n2ncc3c2C(C)(C)C2CCC4(C)C(CC=C5C6CC(C)(C(=O)O)CCC6(C)CCC54C)C2(C)C3)cc1 (stereo not drawn) [Compound 5b]

IC50 (hPTP1B1–400 [2]): 1.57 ± 0.04 µM
IC50 (TCPTP; [4]): > 100 µM
Ki (hPTP1B1–400 [1]): 0.22 µM and 0.224 µM
Inhibition type (hPTP1B1–400 [1]): uncompetitive inhibition
K m (hPTP1B1–400 [1]): 1420 ± 320 µM
V max (hPTP1B1–400 [1]): 1.54 ± 0.28 mM/min
IC50 (hPTP1B1–285): 31.6 ± 0.88 µM
SMILES: Cc1ccc(-n2ncc3c2C(C)(C)C2CCC4(C)C(C(=O)C=C5C6CC(C)(C(=O)O)CCC6(C)CCC54C)C2(C)C3)cc1 (stereo not drawn) [Compound 5c]
HepG2 cell viability (HepG2 cells): No significant differences; also recorded: did not compromise HepG2 cell viability
